Read-outs that look alike come from different tables or passages of the source. Where a SMILES comes first, the peptide text is derived from it.
Columns and labels:
A. baumannii = experiment: MIC of antibiotic during combined treatment with antimicrobial peptide; format: cell-based, Acinetobacter baumannii; settings: A. baumannii; combined with peptide at 64 μg/ml
Protocol: Thereafter, the MIC value of each mixed solution was determined by diluting the antibiotic solution with the MH medium, adding 50 μl of the diluted solution to each well, and performing an experiment even under a reversed condition.

MDRAB 12035 [1] = experiment: as above; format: cell-based, Acinetobacter baumannii
Protocol: (§1) Specifically, the strains described in [Table 2] were prepared and diluted with an MH medium such that the number of bacteria was 2×10^6 colony-forming units (CFUs) per 1 ml, 100 μl of the diluted strains was each aliquoted into a 96-well microtiter plate, and then 50 μl of a peptide solution diluted with the MH medium from the MIC value (solution diluted stepwise at 2: 1) was added to each well. Thereafter, the MIC value of each mixed solution was determined by diluting the antibiotic solution with the MH medium, adding 50 μl of the diluted solution to each well, and performing an experiment even under a reversed condition.

E. coli = format: cell-based, Escherichia coli; settings: E. coli
Protocol: as §1

MDREC 1229 = format: cell-based, Escherichia coli
Protocol: as §1

MDRAB 12035 [2] = experiment: MIC of antimicrobial peptide during combined treatment with antibiotic; format: cell-based, Acinetobacter baumannii
Protocol: as §1

[3] = peptide treatment concentration 1 μg/ml
[4] = peptide treatment concentration 2 μg/ml
[5] = peptide treatment concentration 4 μg/ml
[6] = peptide treatment concentration 6 μg/ml
[7] = peptide treatment concentration 8 μg/ml
[8] = peptide treatment concentration 16 μg/ml
[9] = peptide treatment concentration 32 μg/ml
[10] = peptide treatment concentration 64 μg/ml
[11] = linezolid 64 μg/ml (Conc./MIC 1/8)
[12] = linezolid 512 μg/ml (Conc./MIC 1)
[13] = vancomycin 512 μg/ml (Conc./MIC 1/2)
[14] = vancomycin 1024 μg/ml (Conc./MIC 1)

CC[C@H](C)[C@H](NC(=O)[C@H](CCCCN)NC(=O)[C@H](Cc1c[nH]c2ccccc12)NC(=O)[C@@H](N)CCCNC(=N)N)C(=O)N[C@@H](Cc1ccccc1)C(=O)N[C@@H](CCCCN)C(=O)N[C@@H](CCCCN)C(=O)N[C@H](C(=O)N1CCC[C@H]1C(=O)N[C@@H](CCCCN)C(=O)N[C@@H](CC(C)C)C(=O)N[C@@H](CC(C)C)C(=O)N[C@@H](Cc1c[nH]cn1)C(=O)N[C@@H](CCC(=O)O)C(=O)N[C@@H](Cc1ccccc1)C(=O)N[C@@H](CCCCN)C(=O)N[C@@H](CCCCN)C(=O)N[C@@H](Cc1ccccc1)C(N)=O)[C@@H](C)CC [PapMA-12, RWK IFK KIP KLL HEF KKF-NH2] (H-RWKIFKKIPKLLHEFKKF-NH2; N-terminus assumed)
4 µg/mL: Vancomycin MIC during combined treatment with peptide (MDRAB 12035 [1]; [6]) | Peptide MIC during treatment with antibiotic (MDREC 1229; [11]) | Peptide MIC during treatment with antibiotic (MDREC 1229; vancomycin […] (Conc./MIC 1/4)) | Peptide MIC during treatment with antibiotic (MDREC 1229; vancomycin […] (Conc./MIC 1/8)) | Peptide MIC during treatment with erythromycin (MDRAB 12035 [2]; erythromycin 4 μg/ml (Conc./MIC 1/8))
64 µg/mL: Linezolid MIC during combined treatment with peptide (MDRAB 12035 [1]; [4]) | Vancomycin MIC during combined treatment with peptide (MDRAB 12035 [1]; [4])
128 µg/mL: Linezolid MIC during combined treatment with peptide (MDRAB 12035 [1]; [3]) | Vancomycin MIC during combined treatment with peptide (MDRAB 12035 [1]; [3])
1 µg/mL: Erythromycin MIC during combined treatment with peptide (MDRAB 12035 [1]; [6]) | Peptide MIC during treatment with antibiotic (MDREC 1229; erythromycin […] (Conc./MIC 1/2)) | Peptide MIC during treatment with antibiotic (MDREC 1229; linezolid […] (Conc./MIC 1/2)) | Peptide MIC during treatment with antibiotic (MDREC 1229; [14]) | Peptide MIC during treatment with erythromycin (MDRAB 12035 [2]; erythromycin 16 μg/ml (Conc./MIC 1/2)) | Peptide MIC during treatment with linezolid (MDRAB 12035 [2]; linezolid […] (Conc./MIC 1/2)) | Peptide MIC during treatment with linezolid (MDRAB 12035 [2]; linezolid […] (Conc./MIC 1/4)) | Peptide MIC during treatment with vancomycin (MDRAB 12035 [2]; [14])
8 µg/mL: Erythromycin MIC during combined treatment with peptide (MDRAB 12035 [1]; [4]) | Linezolid MIC during combined treatment with peptide (MDRAB 12035 [1]; [6])
2 µg/mL: Erythromycin MIC during combined treatment with peptide (MDRAB 12035 [1]; [5]) | Peptide MIC during treatment with antibiotic (MDREC 1229; erythromycin 32 μg/ml (Conc./MIC 1/8)) | Peptide MIC during treatment with antibiotic (MDREC 1229; erythromycin 64 μg/ml (Conc./MIC 1/4)) | Peptide MIC during treatment with antibiotic (MDREC 1229; linezolid […] (Conc./MIC 1/4)) | Peptide MIC during treatment with antibiotic (MDREC 1229; [13]) | Peptide MIC during treatment with erythromycin (MDRAB 12035 [2]; erythromycin 8 μg/ml (Conc./MIC 1/4)) | Peptide MIC during treatment with linezolid (MDRAB 12035 [2]; [11]) | Peptide MIC during treatment with vancomycin (MDRAB 12035 [2]; [13]) | Peptide MIC during treatment with vancomycin (MDRAB 12035 [2]; vancomycin […] (Conc./MIC 1/4)) | Peptide MIC during treatment with vancomycin (MDRAB 12035 [2]; vancomycin […] (Conc./MIC 1/8))
16 µg/mL: Erythromycin MIC during combined treatment with peptide (MDRAB 12035 [1]; [3]) | Linezolid MIC during combined treatment with peptide (MDRAB 12035 [1]; [5]) | Vancomycin MIC during combined treatment with peptide (MDRAB 12035 [1]; [5])
0 µg/mL: Antibiotic MIC, Erythromycin (A. baumannii) | Antibiotic MIC, Linezolid (A. baumannii) | Antibiotic MIC, Vancomycin (A. baumannii) | Erythromycin MIC during combined treatment with peptide (MDRAB 12035 [1]; [7]) | Linezolid MIC during combined treatment with peptide (MDRAB 12035 [1]; [7]) | Vancomycin MIC during combined treatment with peptide (MDRAB 12035 [1]; [7]) | Erythromycin MIC during combined treatment with peptide (MDRAB 12035 [1]; [8]) | Linezolid MIC during combined treatment with peptide (MDRAB 12035 [1]; [8]) | Vancomycin MIC during combined treatment with peptide (MDRAB 12035 [1]; [8]) | Erythromycin MIC during combined treatment with peptide (MDRAB 12035 [1]; [9]) | Linezolid MIC during combined treatment with peptide (MDRAB 12035 [1]; [9]) | Vancomycin MIC during combined treatment with peptide (MDRAB 12035 [1]; [9]) | Erythromycin MIC during combined treatment with peptide (MDRAB 12035 [1]; [10]) | Linezolid MIC during combined treatment with peptide (MDRAB 12035 [1]; [10]) | Vancomycin MIC during combined treatment with peptide (MDRAB 12035 [1]; [10]) | Peptide MIC (E. coli; with Erythromycin […] (Conc./MIC 1)) | Peptide MIC (E. coli; with Linezolid […] (Conc./MIC 1)) | Peptide MIC (E. coli; with Vancomycin 1024 μg/ml (Conc./MIC 1)) | Peptide MIC during treatment with antibiotic (MDREC 1229; erythromycin […] (Conc./MIC 1)) | Peptide MIC during treatment with antibiotic (MDREC 1229; [12]) | Peptide MIC during treatment with erythromycin (MDRAB 12035 [2]; erythromycin 32 μg/ml (Conc./MIC 1)) | Peptide MIC during treatment with linezolid (MDRAB 12035 [2]; [12])

Reference: patent US11214594B2, “Antimicrobial peptide having synergistic antibacterial effect with antibiotics on multidrug resistant bacteria, and use thereof” (priority 2016, dated 2022)
